These results are taken from ChEMBL document CHEMBL1201862, “PubChem BioAssay data set” (2004).

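Assay format: 96-well plates, 48-hour exposure. GI50: concentration for 50% inhibition of growth.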 Calls of active or inactive are those of the source. Cut-off read from the data, not from the text of the source: active = GI50 up to about 1.1 µM and inactive = higher. Bounds are passed on as bounds.

Among the test systems are CAKI-1; CCRF-CEM; COLO 205; DU-145; HCC 2998; K562; MDA-MB-435; Malme-3M; NCI-H460; OVCAR-4; OVCAR-8; PC-3; RXF 393; SK-MEL-5; SK-OV-3; SNB-19; TK-10; U-251; UO-31; SNB-75.
Experiment in all cases: NCI anticancer screen, dose series, 48 h

As for `c1ccc([C@@H]2N[C@@]3(CO[Si](c4ccccc4)(c4ccccc4)c4ccccc4)CC[C@H]4CN[C@@H]2[C@H]43)cc1`, the GI50 is 12.4 µM (inactive) in the assay on CAKI-1; 16 µM (inactive) in the assay with CCRF-CEM; 1.68 µM (inactive) in the assay with COLO 205; 10.2 µM (inactive) with DU-145; 1.66 µM (inactive) in the assay on HCC 2998; 3.33 µM (inactive) in the assay on K562. The GI50 with MDA-MB-435 is 8.51 µM (inactive); in the assay with Malme-3M it was 0.0598 µM (active); in the assay on NCI-H460, 10.4 µM (inactive); in the assay on OVCAR-4, 13.6 µM (inactive); with OVCAR-8 it was 13.1 µM (inactive); in the assay with PC-3, 9.06 µM (inactive). In addition, the GI50 was 4.3 µM (inactive) with RXF 393; 6.47 µM (inactive) in the assay with SK-MEL-5; 16.2 µM (inactive) with SK-OV-3; 17.2 µM (inactive) in the assay on SNB-19; 16.7 µM (inactive) with TK-10; 16.9 µM (inactive) in the assay on U-251. Also, the GI50 in the assay on UO-31 is 10.8 µM (inactive).

For the compound `Cc1cn(Cc2cccc(C3=NCCCN3)c2)c(=O)n(Cc2cccc(C3=NCCCN3)c2)c1=O`, the GI50 with CAKI-1, in the assay on CCRF-CEM, in the assay with COLO 205, with DU-145, with HCC 2998 and with K562 was > 100 µM (inactive) each time. The GI50 with MDA-MB-435, in the assay on Malme-3M, in the assay with NCI-H460, in the assay with OVCAR-4, with OVCAR-8 and in the assay on PC-3 was > 100 µM (inactive) each time. Besides, the GI50 in the assay with SK-MEL-5 was > 100 µM (inactive); with SK-OV-3, > 100 µM (inactive); in the assay with SNB-19, > 100 µM (inactive); in the assay on SNB-75 it was 83.6 µM (inactive); in the assay on TK-10, > 100 µM (inactive); with U-251, > 100 µM (inactive). Further, the GI50 in the assay with UO-31 was > 100 µM (inactive).

As to `CC[C@H]1C[C@@H](O)[C@@H]2[C@H](O)[C@H](O)CN2C1`, the GI50 with CCRF-CEM, in the assay on DU-145, in the assay on HCC 2998, in the assay with K562, with MDA-MB-435 and in the assay with Malme-3M was > 100 µM (inactive) throughout. The GI50 in the assay on NCI-H460, in the assay on OVCAR-4, in the assay with OVCAR-8, with PC-3, in the assay on SK-MEL-5 and in the assay with SK-OV-3 was > 100 µM (inactive) in each case. For the same compound, the GI50 with SNB-19, in the assay on SNB-75, in the assay with TK-10 and with U-251 was > 100 µM (inactive) each time.

On to `O=C1C=CC(=NNc2ccccc2)C=CC1=O`, for which the GI50 is 13.9 µM (inactive) in the assay with CAKI-1; 13.5 µM (inactive) in the assay on COLO 205; 18 µM (inactive) in the assay on DU-145; 7.64 µM (inactive) in the assay with K562; 12.9 µM (inactive) in the assay on MDA-MB-435; 13.4 µM (inactive) with Malme-3M. In addition, the GI50 in the assay on NCI-H460 is 11.3 µM (inactive); in the assay on OVCAR-4, 7.46 µM (inactive); in the assay with OVCAR-8, 20.4 µM (inactive); in the assay on PC-3 it was 8.67 µM (inactive); in the assay with RXF 393, 99.8 µM (inactive); in the assay with SK-MEL-5, 11.5 µM (inactive). For the same compound, the GI50 with SK-OV-3 was 26 µM (inactive); with SNB-19 it was 18.9 µM (inactive); in the assay on SNB-75 it was 16.3 µM (inactive); with TK-10 it was 22.3 µM (inactive); in the assay with U-251, 7.71 µM (inactive); in the assay on UO-31, 17.8 µM (inactive).

Regarding `NC(=O)CC(N)c1nnn[nH]1` (centres undefined), the GI50 with CAKI-1, in the assay on CCRF-CEM, in the assay with COLO 205, with DU-145, in the assay with K562 and in the assay with MDA-MB-435 was > 100 µM (inactive) in each case. The GI50 in the assay on Malme-3M, with NCI-H460, with OVCAR-4, in the assay on OVCAR-8, with PC-3 and in the assay with RXF 393 was > 100 µM (inactive) each time. Further, the GI50 in the assay on SK-MEL-5, with SK-OV-3, in the assay on SNB-19, with SNB-75, in the assay on TK-10 and in the assay with U-251 was > 100 µM (inactive) each time. In the assay on UO-31, the GI50 was > 100 µM (inactive).

As to `O=C1CCC2(O)C3Cc4ccc(Oc5nnnn5-c5ccccc5)c5c4C2(CCN3CC2CC2)C1O5` (centres undefined), the GI50 in the assay on CAKI-1 is > 100 µM (inactive); with CCRF-CEM it was 18.6 µM (inactive); with COLO 205, 17.5 µM (inactive); in the assay on DU-145 it was > 100 µM (inactive); in the assay on K562 it was 22.2 µM (inactive); in the assay with MDA-MB-435, 19.9 µM (inactive). For the same compound, the GI50 was 17.8 µM (inactive) with Malme-3M; 56.5 µM (inactive) in the assay with NCI-H460; 79.6 µM (inactive) with OVCAR-4; 63.4 µM (inactive) in the assay with OVCAR-8; 67 µM (inactive) in the assay with PC-3; 39.1 µM (inactive) with RXF 393. Further, the GI50 was 12.8 µM (inactive) in the assay with SK-MEL-5; > 100 µM (inactive) in the assay with SK-OV-3; 95.7 µM (inactive) in the assay with SNB-19; > 100 µM (inactive) with SNB-75; 62.5 µM (inactive) in the assay on TK-10; 33.4 µM (inactive) with U-251. The GI50 in the assay on UO-31 was 24.2 µM (inactive).

As to `CC(C)=CCNc1ncnc2c1ncn2CCC(=O)OC(C)(C)C`, the GI50 was 22 µM (inactive) with CCRF-CEM; > 100 µM (inactive) in the assay on COLO 205; > 100 µM (inactive) in the assay on DU-145; > 100 µM (inactive) in the assay on HCC 2998; 18.4 µM (inactive) in the assay on K562; > 100 µM (inactive) with MDA-MB-435. The GI50 in the assay with Malme-3M was > 100 µM (inactive); in the assay on NCI-H460, > 100 µM (inactive); with OVCAR-4, 4.81 µM (inactive); in the assay with OVCAR-8 it was > 100 µM (inactive); in the assay on PC-3, 34.8 µM (inactive); in the assay on RXF 393, 36.1 µM (inactive). In addition, the GI50 was 21.4 µM (inactive) with SK-MEL-5; 26.2 µM (inactive) with SK-OV-3; > 100 µM (inactive) with SNB-19; 13 µM (inactive) in the assay on SNB-75; > 100 µM (inactive) with TK-10; 63.8 µM (inactive) with U-251. The GI50 with UO-31 is 22.7 µM (inactive).

On to `COc1ccc(C2=NN(C(=O)c3ccc(Cl)cc3)C(O)(c3cc(F)c(Cl)cc3Cl)C2)cc1OC` (centres undefined), for which the GI50 in the assay with CAKI-1 was 18.6 µM (inactive); in the assay on CCRF-CEM it was 1.99 µM (inactive); with DU-145, 8.51 µM (inactive); in the assay on HCC 2998, 8.24 µM (inactive); in the assay on K562 it was 5.82 µM (inactive); in the assay on MDA-MB-435, 13.2 µM (inactive). Moreover, the GI50 in the assay on NCI-H460 is 9.14 µM (inactive); with OVCAR-4 it was 18 µM (inactive); with OVCAR-8 it was 58.1 µM (inactive); with PC-3, 6.44 µM (inactive); in the assay with RXF 393, 6.17 µM (inactive); in the assay on SK-MEL-5, 33.1 µM (inactive). Moreover, the GI50 with SK-OV-3 is > 100 µM (inactive); with TK-10, 86.7 µM (inactive); in the assay on U-251, 19.2 µM (inactive); in the assay on UO-31 it was 3.08 µM (inactive).

Regarding `CC1(C)Oc2ccc3c(=O)cc(-c4ccccc4)oc3c2C1C(=O)O` (centres undefined), the GI50 in the assay with CAKI-1, with CCRF-CEM, with COLO 205, in the assay with DU-145, in the assay with HCC 2998 and in the assay with K562 was > 100 µM (inactive) in each case. The GI50 in the assay with MDA-MB-435, with Malme-3M, in the assay with OVCAR-4, with OVCAR-8, with PC-3 and with RXF 393 was > 100 µM (inactive) throughout. Further, the GI50 in the assay on SK-MEL-5, in the assay on SK-OV-3, with TK-10 and in the assay on U-251 was > 100 µM (inactive) each time.

Regarding `CC(O)(CNS(=O)(=O)c1ccccc1)c1ccccc1` (centres undefined), the GI50 in the assay on CAKI-1, with CCRF-CEM, in the assay with COLO 205, in the assay on DU-145, with K562 and in the assay with MDA-MB-435 was > 100 µM (inactive) each time. Besides, the GI50 in the assay with Malme-3M, in the assay with NCI-H460, with OVCAR-4, in the assay with OVCAR-8, in the assay with PC-3 and in the assay on RXF 393 was > 100 µM (inactive) each time. Also, the GI50 in the assay on SK-MEL-5, with SK-OV-3, with SNB-19, in the assay with SNB-75, in the assay on TK-10 and in the assay on U-251 was > 100 µM (inactive) in each case. For the same compound, the GI50 in the assay on UO-31 was > 100 µM (inactive).

For the compound `Nc1ncc2c(n1)-c1ccccc1OC2N1CCOCC1` (centres undefined), the GI50 with CAKI-1, with CCRF-CEM, in the assay on COLO 205, with DU-145, in the assay on K562 and in the assay on MDA-MB-435 was > 100 µM (inactive) in each case. The GI50 with Malme-3M, with NCI-H460, in the assay with OVCAR-4, in the assay on OVCAR-8, in the assay with PC-3 and in the assay with RXF 393 was > 100 µM (inactive) throughout. Further, the GI50 in the assay on SK-MEL-5 is > 100 µM (inactive); with SK-OV-3, > 100 µM (inactive); with SNB-19 it was > 100 µM (inactive); in the assay with SNB-75, 59.7 µM (inactive); in the assay with TK-10 it was > 100 µM (inactive); in the assay with U-251 it was > 100 µM (inactive). Besides, the GI50 in the assay with UO-31 was > 100 µM (inactive).
